The target in this test is T1, TRAAKG165R (Homo sapiens, UniProt Q9NYG8, G139R).
T1 construct: The transcribed messages encode H. sapiens TRAAK amino acids 1–393; expressed in transfected cells; host or cells: Xenopus laevis oocytes, cRNA injection
T1 sequence (Q9NYG8 1-393 G139R): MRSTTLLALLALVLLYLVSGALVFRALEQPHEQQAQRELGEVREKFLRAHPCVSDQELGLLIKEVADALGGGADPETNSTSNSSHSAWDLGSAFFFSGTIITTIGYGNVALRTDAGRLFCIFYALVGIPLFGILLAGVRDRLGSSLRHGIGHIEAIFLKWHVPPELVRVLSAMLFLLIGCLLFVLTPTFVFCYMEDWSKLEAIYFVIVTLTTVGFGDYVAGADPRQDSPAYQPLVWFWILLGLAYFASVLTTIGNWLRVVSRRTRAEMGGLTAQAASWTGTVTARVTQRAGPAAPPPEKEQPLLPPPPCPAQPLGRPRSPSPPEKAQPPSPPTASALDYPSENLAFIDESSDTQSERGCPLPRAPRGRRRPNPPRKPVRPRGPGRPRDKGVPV
Kind of test: Excised patch recording of TRAAK mutant G165R. It is filed as biochemical. An excerpt: For patch clamp recording from Xenopus oocytes, genes encoding full-length Homo sapiens TRAAK (UniProt Q9NYG8–2), TREK-1 (UniProt O95069), and TREK-2 (UniProt P57789) were codon optimized for eukaryotic expression, synthesized (Genewiz), and cloned into a modified pGEMHE vector using Xho1 and EcoR1 restriction sites. The transcribed messages encode H. sapiens TRAAK amino acids 1–393, TREK-1 amino acids 1–426, or TREK-2 amino acids 1–538 with an additional three amino acids (SNS) at the C terminus. TRAAK mutants were introduced by polymerase chain reaction (PCR). Linearized DNA was transcribed in vitro using T7 polymerase. […] Currents were recorded at 25 °C from inside-out patches excised from oocytes 1 to 5 d after RNA injection. […]
Patches were evaluated with voltage-step protocols to confirm TRAAK expression and minimal non-specific leak based on reversal potential. Currents were recorded using an Axopatch 200B amplifier (Molecular Devices) at a bandwidth of 1 kHz and digitized with an Digidata 1550B (Molecular Devices) at 100–500 kHz using pClamp10.7 software. […] In an effort to minimize variability associated with differences in resting membrane tension, we targeted patches with low basal curvature and low resting channel activity and ensured measured pressure difference across the patch was as close to zero as possible at rest to prevent mechanical activation of channels. […]

A word on the IC50: it is the concentration at which inhibition is half-maximal.

As to `C=C(C)[C@@H]1CCC(C)=C[C@H]1c1c(O)cc(CCCCC)cc1O` [CBD, Cannabidiol], the IC50 stood at 356 ± 18 nM.

Source of the values: publication doi:10.1101/2024.12.09.627564, “Cannabinoid inhibition of mechanosensitive K^+ channels” (bioRxiv, 2024).
